Test results taken from patent publication US20190125888A1, “TARGETED CONJUGATES AND PARTICLES AND FORMULATIONS THEREOF” (priority 2015, published 2019).
Read-outs that look alike come from different tables or passages of the source.

Key:
[1] = Ligand charge of maytansinoid conjugates; format: physicochemical
human SSTR2 = human SSTR2 (Homo sapiens, UniProt P30874); test: Radioligand-receptor binding assay, [125I] somatostatin, membranes from SSTR2 expressing CHO-K1 cells
Description: These conjugates were also assessed in an in vitro assay evaluating binding to the somatostatin receptor 2 (SSTR2). A radioligand-receptor binding assay was conducted at Eurofins Panlabs (Taiwan) to determine the affinity of conjugates described herein to the SSTR2. The assay measures binding of radiolabeled ligand, [^125I] labeled somatostatin, to human SSTR2 using membrane preparations from SSTR2 expressing CHO-K1 cells. Membranes were incubated with radiolabeled somatostatin (0.03 nM) in the presence of conjugate/compound starting at a dose of 10 uM using 6× serial dilutions to obtain a 10-pt curve. After a four hour incubation, membranes were filtered and washed 3× and counted to determine the remaining [^125I] somatostatin bound to the receptor. IC50 values were determined by a non-linear, least squares regression analysis using MathIQ™ (ID Business Solutions Ltd., UK).

[2] = tested on: NCI-H524 (ATCC) human lung cancer cells; format: cell-based
Description: FIG. 1 is a graph of various conjugates represented as bars and showing on the Y-axis their activity in an H524 proliferation assay with and without competition by octreotide. […] This illustrates the suprprising finding that only maytansinoid conjugates show activity that is dependent on the receptor.
Conjugates were assessed in an in vitro assay evaluating inhibition of cell proliferation. NCI-H524 (ATCC) human lung cancer cells were plated in 96 well, V-bottomed plates (Costar) at a concentration of 5,000 cells/well and 24 hours later were treated with compound for 6 hours and further incubated 66 hours. Compound starting dose was 20 μM and three fold serial dilutions were done for a total of ten points. After 6 hours of treatment, cells were spun down, the drug containing media was removed, and fresh complete medium was added and used to resuspend the cells, which were spun again. After removal of the wash media, the cells were resuspended in complete medium, then transferred into white walled, flat bottomed 96 well plates. […] Proliferation was measured using CellTiter Glo reagent using the standard protocol (Promega) and a Glomax multi+detection system (Promega). Percent proliferation inhibition was calculated using the following formula: % inhibition=(control-treatment)/control*100. Control is defined as vehicle alone. IC50 curves were generated using the nonlinear regression analysis (four parameter) with GraphPad Prism 6.
Conjugates were tested for their activity dependence on the somatostatin receptor. Active agent Z in the conjugate was selected from auristatin, carbazitaxel, DM1, doxorubicin, platinum, SN-38 and vinblastine. Active agent Z is connected to octreotide with various linkers. Proliferation IC50 values of the conjugates were measured. Proliferation IC50 values of the conjugates without octreotide competition were also measured. The ratio of IC50 with octreotide competition and IC50 without octreotide competition is an indicator of whether activity is at least particially dependent on bind to the somatostatin receptor. […] Therefore, the activity of conjugates comprising DM1 is dependent on the binding to the somatostatin receptor.

[3] = read-out: H524 IC50 6 h, 6 hours treatment, further 66 hours incubation
[4] = read-out: H524 IC50 with 100 μM octreotide 6 h, with 100 μM octreotide competition, 6 h treatment

Chain of human SSTR2 (P30874 whole entry): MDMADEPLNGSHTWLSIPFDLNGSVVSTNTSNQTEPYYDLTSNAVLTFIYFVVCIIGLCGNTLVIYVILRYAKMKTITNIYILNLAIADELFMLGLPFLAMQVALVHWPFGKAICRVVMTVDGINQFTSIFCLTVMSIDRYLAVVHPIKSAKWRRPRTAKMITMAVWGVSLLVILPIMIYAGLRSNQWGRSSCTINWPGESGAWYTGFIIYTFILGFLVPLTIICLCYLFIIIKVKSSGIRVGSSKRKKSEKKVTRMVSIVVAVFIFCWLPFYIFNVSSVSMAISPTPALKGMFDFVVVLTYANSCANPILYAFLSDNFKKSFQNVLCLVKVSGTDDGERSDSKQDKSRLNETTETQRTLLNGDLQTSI

| Structure (SMILES) | Ligand charge [1] | Ki (human SSTR2) | IC50 [2, 3] | IC50 [2, 4] |
| --- | --- | --- | --- | --- |
| COc1cc2cc(c1Cl)N(C)C(=O)C[C@H](OC(=O)[C@H](C)N(C)C(=O)CCSC1CC(=O)N(CCCNC(=O)CC[C@H](NC(=O)[C@@H]3CSSC[C@H](NC(=O)[C@H](N)Cc4ccccc4)C(=O)N[C@@H](Cc4ccc(O)cc4)C(=O)N[C@H](Cc4c[nH]c5ccccc45)C(=O)N[C@@H](CCCCN)C(=O)N[C@@H]([C@@H](C)O)C(=O)N3)C(N)=O)C1=O)[C@]1(C)O[C@H]1[C@H](C)[C@@H]1C[C@@](O)(NC(=O)O1)[C@H](OC)/C=C/C=C(\C)C2 (stereo partly shown) [Conjugate 48] | +2 | 0.21 nM | 9 nM | 157 nM |
| COc1cc2cc(c1Cl)N(C)C(=O)C[C@H](OC(=O)[C@H](C)N(C)C(=O)CCSSC(C)(C)[C@@H](NC(=O)[C@@H]1CSSC[C@H](NC(=O)[C@@H](Cc3ccccc3)NC(=O)NCc3ccccc3)C(=O)N[C@@H](Cc3ccc(O)cc3)C(=O)N[C@H](Cc3c[nH]c4ccccc34)C(=O)N[C@@H](CCCCN)C(=O)N[C@@H]([C@@H](C)O)C(=O)N1)C(N)=O)[C@]1(C)O[C@H]1[C@H](C)[C@@H]1C[C@@](O)(NC(=O)O1)[C@H](OC)/C=C/C=C(\C)C2 [Conjugate 9] | +1 | 3.15 nM | 208 nM | 815 nM |
| COc1cc2cc(c1Cl)N(C)C(=O)C[C@H](OC(=O)[C@H](C)N(C)C(=O)CCSSC[C@H](NC(=O)[C@@H]1CSSC[C@H](NC(=O)[C@@H](Cc3ccccc3)NC(C)=O)C(=O)N[C@@H](Cc3ccc(O)cc3)C(=O)N[C@H](Cc3c[nH]c4ccccc34)C(=O)N[C@@H](CCCCN)C(=O)N[C@@H]([C@@H](C)O)C(=O)N1)C(N)=O)[C@]1(C)O[C@H]1[C@H](C)[C@@H]1C[C@@](O)(NC(=O)O1)[C@H](OC)/C=C/C=C(\C)C2 [Conjugate 27] | +1 | 0.15 nM | 17 nM | 49 nM |
| COc1cc2cc(c1Cl)N(C)C(=O)C[C@H](OC(=O)[C@H](C)N(C)C(=O)CCSSC[C@H](NC(=O)[C@@H]1CSSC[C@H](NC(=O)[C@@H](Cc3ccccc3)NCc3ccccc3)C(=O)N[C@@H](Cc3ccc(O)cc3)C(=O)N[C@H](Cc3c[nH]c4ccccc34)C(=O)N[C@@H](CCCCN)C(=O)N[C@@H]([C@@H](C)O)C(=O)N1)C(N)=O)[C@]1(C)O[C@H]1[C@H](C)[C@@H]1C[C@@](O)(NC(=O)O1)[C@H](OC)/C=C/C=C(\C)C2 [Conjugate 43] | +2 | 0.075 nM | 7.2 nM | 20 nM |
| COc1cc2cc(c1Cl)N(C)C(=O)C[C@H](OC(=O)[C@H](C)N(C)C(=O)CCSSC[C@@H](NC(=O)[C@@H]1CSSC[C@H](NC(=O)[C@@H](Cc3ccccc3)NC(=O)C(F)(F)F)C(=O)N[C@@H](Cc3ccc(O)cc3)C(=O)N[C@H](Cc3c[nH]c4ccccc34)C(=O)N[C@@H](CCCCN)C(=O)N[C@@H]([C@@H](C)O)C(=O)N1)C(N)=O)[C@]1(C)O[C@H]1[C@H](C)[C@@H]1C[C@@](O)(NC(=O)O1)[C@H](OC)/C=C/C=C(\C)C2 [Conjugate 32] | +1 | 0.82 nM | 33 nM | 98 nM |
| COc1cc2cc(c1Cl)N(C)C(=O)C[C@H](OC(=O)[C@H](C)N(C)C(=O)CCSSC[C@H](NC(=O)[C@@H]1CSSC[C@H](NC(=O)[C@@H](Cc3ccccc3)NC(=O)C(F)(F)F)C(=O)N[C@@H](Cc3ccc(O)cc3)C(=O)N[C@H](Cc3c[nH]c4ccccc34)C(=O)N[C@@H](CCCCN)C(=O)N[C@@H]([C@@H](C)O)C(=O)N1)C(N)=O)[C@]1(C)O[C@H]1[C@H](C)[C@@H]1C[C@@](O)(NC(=O)O1)[C@H](OC)/C=C/C=C(\C)C2 [Conjugate 29] | +1 | 0.23 nM | 5.7 nM | 28 nM |
| COc1cc2cc(c1Cl)N(C)C(=O)C[C@H](OC(=O)[C@H](C)N(C)C(=O)CCSSCCNC(=O)CC[C@H](NC(=O)[C@@H]1CSSC[C@H](NC(=O)[C@H](N)Cc3ccccc3)C(=O)N[C@@H](Cc3ccc(O)cc3)C(=O)N[C@H](Cc3c[nH]c4ccccc34)C(=O)N[C@@H](CCCCN)C(=O)N[C@@H]([C@@H](C)O)C(=O)N1)C(N)=O)[C@]1(C)O[C@H]1[C@H](C)[C@@H]1C[C@@](O)(NC(=O)O1)[C@H](OC)/C=C/C=C(\C)C2 [Conjugate 47] | +2 | 0.072 nM | 0.7 nM | 210 nM |
| COC(=O)N[C@H](Cc1ccccc1)C(=O)N[C@H]1CSSC[C@@H](C(=O)N[C@@H](CSSCCC(=O)N(C)[C@@H](C)C(=O)O[C@H]2CC(=O)N(C)c3cc(cc(OC)c3Cl)C/C(C)=C/C=C/[C@@H](OC)[C@@]3(O)C[C@H](OC(=O)N3)[C@@H](C)[C@@H]3O[C@@]23C)C(N)=O)NC(=O)[C@H]([C@@H](C)O)NC(=O)[C@H](CCCCN)NC(=O)[C@@H](Cc2c[nH]c3ccccc23)NC(=O)[C@H](Cc2ccc(O)cc2)NC1=O [Conjugate 35] | +1 | 0.024 nM | 27 nM | 17 nM |
| COc1cc2cc(c1Cl)N(C)C(=O)C[C@H](OC(=O)[C@H](C)N(C)C(=O)CCSSC(C)(C)[C@H](NC(=O)CC[C@H](NC(=O)[C@@H]1CSSC[C@H](NC(=O)[C@H](N)Cc3ccccc3)C(=O)N[C@@H](Cc3ccc(O)cc3)C(=O)N[C@H](Cc3c[nH]c4ccccc34)C(=O)N[C@@H](CCCCN)C(=O)N[C@@H]([C@@H](C)O)C(=O)N1)C(N)=O)C(N)=O)[C@]1(C)O[C@H]1[C@H](C)[C@@H]1C[C@@](O)(NC(=O)O1)[C@H](OC)/C=C/C=C(\C)C2 [Conjugate 18] | +2 | 0.18 nM | 19 nM | 353 nM |
| COc1cc2cc(c1Cl)N(C)C(=O)C[C@H](OC(=O)[C@H](C)N(C)C(=O)CCSSC[C@H](NC(=O)[C@@H]1CSSC[C@H](NC(=O)[C@@H](Cc3ccccc3)NC(=O)NC3CCCCC3)C(=O)N[C@@H](Cc3ccc(O)cc3)C(=O)N[C@H](Cc3c[nH]c4ccccc34)C(=O)N[C@@H](CCCCN)C(=O)N[C@@H]([C@@H](C)O)C(=O)N1)C(=O)NCc1ccccc1)[C@]1(C)O[C@H]1[C@H](C)[C@@H]1C[C@@](O)(NC(=O)O1)[C@H](OC)/C=C/C=C(\C)C2 [Conjugate 26] | +1 | 1.42 nM | 30 nM | 106 nM |
| COc1cc2cc(c1Cl)N(C)C(=O)C[C@H](OC(=O)[C@H](C)N(C)C(=O)CCSSC[C@H](NC(=O)CC[C@H](NC(=O)[C@@H]1CSSC[C@H](NC(=O)[C@H](N)Cc3ccccc3)C(=O)N[C@@H](Cc3ccc(O)cc3)C(=O)N[C@H](Cc3c[nH]c4ccccc34)C(=O)N[C@@H](CCCCN)C(=O)N[C@@H]([C@@H](C)O)C(=O)N1)C(N)=O)C(N)=O)[C@]1(C)O[C@H]1[C@H](C)[C@@H]1C[C@@](O)(NC(=O)O1)[C@H](OC)/C=C/C=C(\C)C2 [Conjugate 46] | +2 | 0.045 nM | 0.3 nM | 195 nM |
| COc1cc2cc(c1Cl)N(C)C(=O)C[C@H](OC(=O)[C@H](C)N(C)C(=O)CCSSC[C@H](NC(C)=O)C(=O)NC[C@H](NC(=O)[C@@H]1CSSC[C@H](NC(=O)[C@H](N)Cc3ccccc3)C(=O)N[C@@H](Cc3ccc(O)cc3)C(=O)N[C@H](Cc3c[nH]c4ccccc34)C(=O)N[C@@H](CCCCN)C(=O)N[C@@H]([C@@H](C)O)C(=O)N1)C(N)=O)[C@]1(C)O[C@H]1[C@H](C)[C@@H]1C[C@@](O)(NC(=O)O1)[C@H](OC)/C=C/C=C(\C)C2 [Conjugate 45] | +2 | 0.049 nM | 1.3 nM | 154 nM |
| COc1cc2cc(c1Cl)N(C)C(=O)C[C@H](OC(=O)[C@H](C)N(C)C(=O)CCSSC(C)(C)[C@H](NC(=O)[C@@H]1CSSC[C@H](NC(=O)[C@H](N)Cc3ccccc3)C(=O)N[C@@H](Cc3ccc(O)cc3)C(=O)N[C@H](Cc3c[nH]c4ccccc34)C(=O)N[C@@H](CCCCNC(=O)[C@@H](NC(=O)[C@@H](N)C(C)C)C(C)C)C(=O)N[C@@H]([C@@H](C)O)C(=O)N1)C(N)=O)[C@]1(C)O[C@H]1[C@H](C)[C@@H]1C[C@@](O)(NC(=O)O1)[C@H](OC)/C=C/C=C(\C)C2 [Conjugate 58] | +2 | 3980 nM | 90 nM | 250 nM |
